The source of these data is publication PMC12812009, “Optimization of 4‐Amino‐2‐Pyridone Inhibitors of Proprotein Convertase Subtilisin/Kexin Type 9: Integrating Structure–Activity and Structure–Metabolism Relationships” (Chemmedchem, 2025).

Read-outs that look alike come from different tables or passages of the source.

Usually CC50 stands for the concentration at which the toxic effect on the cells reaches its halfway point. For orientation: IC50 means the concentration that inhibits the measured activity by half.

A short description of series [1]: MTT cell viability assay in HepG2 cell cultures. In kind it is cell-based, human. The following applies: human, HepG2 cells, MTT. As for the experimental part: (§1) The approach we set‐up to test the new PCSK9i was based on functional assay, which evaluated at the same time compounds cytotoxicity, and their effect on the secreted PCSK9 on the same cell line. First, cell viability was evaluated in HepG2 cell cultures using the MTT assay (CC50 values are reported in Table 1 and Figure 5 ) after 24 h of incubation in starving conditions (0.4% fetal bovine serum (FBS)). The low FBS concentration, and thus low extracellular lipoproteins, stimulates the sterol responsive element binding protein (SREBP) pathway, inducing the expression of LDLR, PCSK9, HMG‐CoA reductase,^[ [28] ^] thus increasing the uptake of exogenous cholesterol and enhancing the synthesis of endogenous cholesterol. This first step allowed us to calculate the CC50 and identify the noncytotoxic concentrations (viability higher than 90%; Table 1), then tested for PCSK9 inhibitory activity.
(§2) Cell viability was assessed using the MTT assay. Cells were seeded in 96‐well plates (2.5 × 10^4 cells/well) in MEM supplemented with 10% v/v FBS and incubated for 24 h. The cells were then treated with the synthesized compounds dissolved in DMSO at increasing concentrations (from 0.5 to 50 µM) in MEM supplemented with 0.4% v/v FBS for 24 h. Simvastatin [20 and 40 µM] and BBR [10 µM] (both from Merck, St. Louis, Missouri, USA) were used as internal controls as PCSK9 inducer and inhibitor, respectively.^[ [21] ^, [34] ^, [35] ^] The cells were then incubated for 2 h with a solution of MTT [1 mg mL^–1] in MEM supplemented with 0.4% v/v FBS, away from light sources. The supernatant was then collected and 200 µL of DMSO was added to each well to solubilize the newly formed formazan. Finally, an aliquot of 100 µL was taken to measure the absorbance at a wavelength of 570 nm using an absorbance microplate reader (Spark Tecan, Switzerland). Every experimental condition was run in duplicate and the average cell viability and standard deviation was calculated. Cell viability was expressed as the percentage of treated cells compared to untreated (basal) cells. CC50 values for each compound were calculated by interpolating the percentage of cell viability through nonlinear regression analysis of the log (inhibition) versus response using GraphPad Prism software version 8.0 (GraphPad Software Inc., La Jolla, CA).
For orientation: Tetrazolium dyes change colour on reduction, which living cells bring about.

The subject of series [2] is secreted PCSK9. In words: PCSK9 secretion in culture medium, ELISA on HepG2 supernatants. In kind it is cell-based, human. As for the experimental part: Next, the levels of secreted PCSK9 were quantified by ELISA assay (Figure 5) only on supernatants collected from cells treated with noncytotoxic concentrations of each compound, as reported in Table 1. Simvastatin (Simva) at 20 and 40 μM and berberine (BBR) at 10 μM were included as controls. As described in the literature, simvastatin induces PCSK9 expression as a compensatory mechanism in response to its cholesterol‐lowering effects, being a pharmacological competitor for HMG‐CoA reductase, the rate‐limiting enzyme of the cholesterol biosynthetic pathway.^[ [29] ^] In contrast, BBR, a natural compound, reduces the expression of PCSK9 levels through transcriptional inhibition, thus increasing the LDLR availability on plasma membrane.^[ [30] ^] As additional and distinct mechanism to the latter, BBR is also able to stabilize the transcript of LDLR, thus increasing its half‐life.^[ [31] ^] As expected, cells stimulated with simvastatin released more PCSK9 into the culture medium compared to unstimulated cells, with a statistically significant concentration‐dependent effect (+73% at 20 μM, p < 0.01; +200% at 40 μM, p < 0.0001), while BBR at 10 μM decreased PCSK9 levels in the medium more than 50% (p < 0.0001 vs. basal) (Figure 5).^[ [32] ^] The amount of PCSK9 secreted into the culture media was measured with an appropriate ELISA kit (R&D System, DY3888 and DY008B2) on the supernatants collected during the MTT assay. Every experimental condition was run in duplicate and the average PCSK9 secretion and standard deviation was calculated. A 4PL regression analysis was used to interpolate unknowns with the standard curve using GraphPad Prism v10.2, according to manufacturers’ instructions. The data were normalized onto the corresponding cell viability, and IC50 was then calculated using GraphPad Prism v10.2.
A general note: ELISA stands for enzyme-linked immunosorbent assay.

Series [3] in a line: In vitro metabolic stability with mouse liver microsomes. Type of series: in vitro ADME. The settings on record: for metabolic stability, percentage of intact compound recovered relative to control: MLM 1 mg/ml + NADPH-generating system, 10 µM, HPLC; for metabolic stability, percentage of intact compound recovered relative to control / metabolic stability (in words): 60 min; for metabolic stability (in words): MLM + NADPH-generating system. As for the experimental part:
All newly synthesized LSF derivatives of 5c were biologically evaluated to determine whether the introduced modifications influenced both metabolic stability and anti‐PCSK9 activity. Microsomal stability assays were conducted to assess the impact of LSF modifications on improving the stability of 5c. In these assays, LSF derivatives were incubated with mouse liver microsomes (MLM) and an NADPH‐generating system for 60 min, followed by HPLC analysis. Control samples included compounds and liver microsomes without the NADPH system, allowing for the assessment of nonspecific binding to microsomes. […] Acylated derivatives 12, 13, and 14 achieved stability levels exceeding 95%, as did the bicyclic derivative 7, which exemplifies a dual‐site functionalization.
MLM (pooled male) were obtained from Xenotech, LLC (Cambridge, Kansas City, USA). Glucose‐6‐phosphate (G6P), oxidized nicotinamide‐adenine‐dinucleotide phosphate (NADP^+), magnesium chloride (MgCl2), and glucose‐6‐phosphate‐dehydrogenase (G6PDH) were supplied by Sigma‐Aldrich (Milan, Italy). Metabolic stability assays were modified from Ferlenghi et al.^[ [33] ^] Briefly, samples were prepared in 100 mM phosphate buffered saline (PBS), pH 7.4, containing 1 mg ml^–1 MLM and a NADPH‐generating system (5 mM MgCl2, 10 mM glucose‐6‐phosphate, 2 mM NADP^+, 1.5 U ml^–1 of glucose‐6‐phosphate dehydrogenase). After incubation (37 °C, 5 min stirring), compounds stock solutions in DMSO were added to a final concentration of 10 µM. The final DMSO percentage in samples was kept at 0.5%. After 60 min, single aliquots of reaction mixture were withdrawn, added of two volumes of acetonitrile, centrifuged (10,000 g, 10 min) and the supernatant was analyzed by HPLC. The unspecific binding to MLM was evaluated by means of control samples in which the compounds were incubated in the absence of a NADPH generating system. The apparatus used for HPLC analysis was a Shimadzu instrument, with a reverse‐phase Nova‐Pak column (Waters) (C18 4 μm 3.9 × 150 mm, Waters). The mobile phase, pumped at a flow rate of 1.2 ml min^–1, consisted of water and acetonitrile in either a 50:50 (v/v) ratio (compounds 5c, 6a, 6b, 6c, 7, 8, 12, 13, 14, 17b) or a 40:60 (v/v) ratio (compounds 11 and 15) or a 30:70 (v/v) ratio (for compounds 17a, 18a, 18b). For compounds 9 and 10, a phosphate buffer (5.98 g L^–1 Na2HPO4, 0.19 g L^–1 KH2PO4, adjusted to pH 7.4 with 85% H3PO4 and supplemented with 1.4 mL L^–1 triethylamine; final pH: 8) and acetonitrile (50:50, v/v) were pumped at a flow rate of 2 mL min^–1. In all cases, column temperature was 35 °C, injection volume was 50 µl, and absorbance was monitored at 254 nm. Serial dilutions for the calibration curves were prepared in the interval 0.5–20 µM in either PBS:CH3CN or H2O:CH3CN mixture (50:50, v/v) for compounds 5c, 6a, 6b, 8, 9, 10, 11, 12, 13, 14, 15, 17a, 17b, 18a, 18b, and in acetonitrile for compounds 6c and 7.

In series [4] the test system is HepG2 cell cultures. The series is described as follows: MTT cell viability assay in HepG2 cell cultures. In kind it is cell-based, human. The following applies: 0.5-50.0 μM, HepG2, MTT, 24 h. On the procedure: as §1, §2
The mark [5] stands for this setting: printed in Figures 5 and 8, HepG2, 24 h, read-out: CC50.
The mark [6] stands for this setting: Homo sapiens, HepG2, 24 h, read-out: secreted PCSK9 change vs. basal.
Setting [7] is: 24 h incubation, HepG2, 0.4% FBS, 0.5-50.0 μM, read-out: CC50 (CI 95%).
Setting [8] is: HepG2, 24 h, non-cytotoxic concentrations.
Where [9] appears, read: Homo sapiens, HepG2, 24 h, ELISA on supernatants, normalized to viability, Figures 5 and 8 and text, read-out: IC50 (anti-PCSK9 activity, PCSK9 secretion).

As to `Cc1cc(N(Cc2ccc(C(F)(F)F)cc2)C(=O)c2ccccc2)cc(=O)n1Cc1ccc(C(F)(F)F)cc1` [Compound 13, N‐(6‐Methyl‐2‐Oxo‐1‐(4‐(Trifluoromethyl)Benzyl)‐1,2‐Dihydropyridin‐4‐yl)‐N‐(4‐(Trifluoromethyl)Benzyl)Benzamide], in series [1] (setting [5]), the CC50 at 24 h was above 50 µM. In addition, the inhibition at 0.5 µM in series [2] (Homo sapiens, 0.5 μM, HepG2, 24 h, read-out: secreted PCSK9 change vs. basal) is 17%. The inhibition at 5 µM in series [2] (setting [6]) turned out to be 51%. In addition, the “metabolic stability, percentage of intact compound recovered relative to control” value in series [3] is reported as “exceeding 95%”.
With `Cc1cc(N(Cc2ccc(C(F)(F)F)cc2)C(=O)CCl)cc(=O)n1Cc1ccc(C(F)(F)F)cc1` [Compound 14, 2‐Chloro‐N‐(6‐Methyl‐2‐Oxo‐1‐(4‐(Trifluoromethyl)Benzyl)‐1,2‐Dihydropyridin‐4‐yl)‐N‐(4‐(Trifluoromethyl)Benzyl)Acetamide], the half-maximal cytotoxic concentration (CC50) at 24 h in series [1] (setting [7]) stood at 15 µM. Also, the “effect on PCSK9 secretion (in words)” value in series [2] (setting [8]) is “a bit less effective than 8 at the highest concentration used”. Besides, in series [2] (Homo sapiens, HepG2, Table S2, ELISA, non-cytotoxic concentrations, read-out: IC50 ± SD on PCSK9 secreted by HepG2), the IC50 came to 6.4 ± 0.37 µM. Further, in series [3], the “metabolic stability, percentage of intact compound recovered relative to control” value is “exceeding 95%”.
For `CC(=O)N(Cc1ccc(C(F)(F)F)cc1)c1cc(C)n(Cc2ccc(C(F)(F)F)cc2)c(=O)c1Br` [Compound 15, N‐(3‐Bromo‐6‐Methyl‐2‐Oxo‐1‐(4‐(Trifluoromethyl)Benzyl)‐1,2‐Dihydropyridin‐4‐yl)‐N‐(4‐(Trifluoromethyl)Benzyl)Acetamide], the CC50 at 24 h in series [1] (setting [5]) is above 50 µM. Also, the “effect on PCSK9 secretion (in words)” value in series [2] (setting [8]) is reported as “did not inhibit PCSK9 in a dose‐dependent manner”. Also, the inhibition at 25 µM in series [2] (Homo sapiens, 25 μM, HepG2, 24 h, read-out: secreted PCSK9 change vs. basal) came out at 80%. Also, in series [3], the “metabolic stability (in words)” value is “did not result in improved stability over the single‐site modifications in 12 or 6b”.
`Cc1cc(OCc2ccc(C(F)(F)F)cc2)cc(=O)n1Cc1ccc(C(F)(F)F)cc1` [Compound 17a, 6‐Methyl‐1‐(4‐(Trifluoromethyl)Benzyl)‐4‐((4‐(Trifluoromethyl)Benzyl)Oxy)pyridin‐2(1H)‐One]: the CC50 at 24 h in series [1] (setting [7]) amounted to 22 µM. In addition, the inhibition at 5 µM in series [2] (setting [6]) was 58%. The “metabolic stability (in words)” value in series [3] is listed as “did not show improved metabolic stability compared to 5c”.
With `Cc1cc(OCc2cccc(F)c2)cc(=O)n1Cc1ccc(Cl)cc1` [Compound 17b, 1‐(4‐Chlorobenzyl)‐4‐((3‐Fluorobenzyl)Oxy)‐6‐Methylpyridin‐2(1H)‐One], the CC50 at 24 h in series [1] (setting [7]) was 10 µM. In addition, the inhibition at 5 µM in series [2] (setting [6]) was 82%. The IC50 in series [2] (setting [9]) was below 2.5 µM. Further, in series [3], the “metabolic stability (in words)” value is recorded as “did not show any improvement in metabolic stability compared to 5c”.
As for `Cc1cc(OCc2ccc(C(F)(F)F)cc2)c(Cc2ccc(C(F)(F)F)cc2)c(=O)n1Cc1ccc(C(F)(F)F)cc1` [Compound 18a, 6‐Methyl‐1,3‐Bis(4‐(Trifluoromethyl)Benzyl)‐4‐((4‐(Trifluoromethyl)Benzyl)Oxy)pyridin‐2(1H)‐One], the CC50 at 24 h in series [1] (setting [5]) is above 50 µM. Moreover, the “cytotoxicity (in words)” value in series [4] is on record as “nontoxic at all the concentrations tested”. Moreover, the inhibition at 50 µM in series [2] (setting [6]) was 80%. Besides, the IC50 in series [2] (setting [9]) was found to be 2.1 µM. Also, in series [3], the “metabolic stability, percentage of intact compound recovered relative to control” value is “exceeding 95%”. Besides, the “metabolic stability/PCSK9 IC50 ratio (in words)” value in series [3] (with respect to 5c) is “higher metabolic stability/PCSK9 IC50 ratio”.
Turning to `Cc1cc(OCc2cccc(F)c2)c(Cc2cccc(F)c2)c(=O)n1Cc1ccc(Cl)cc1` [Compound 18b, 1‐(4‐Chlorobenzyl)‐3‐(3‐Fluorobenzyl)‐4‐((3‐Fluorobenzyl)Oxy)‐6‐Methylpyridin‐2(1H)‐One], in series [1] (setting [5]), the CC50 at 24 h was above 50 µM. Moreover, the “cytotoxicity (in words)” value in series [4] is given as “nontoxic at all the concentrations tested”. Besides, in series [2] (setting [6]), the inhibition at 50 µM was found to be 81%. Moreover, in series [2] (setting [9]), the IC50 is 3.3 µM. In series [3], the “metabolic stability (in words)” value is “did not show any improvement in metabolic stability compared to 5c”.
